Results published in US20070276011A1, “Plasminogen Activator Inhibitor-1 Inhibitor” (priority 2003, published 2007).

Target: recombinant human PAI-1 (Homo sapiens, UniProt P05121)
Assay: PAI-1 inhibitory activity, Test Method A (tPA fluorogenic substrate, Tris buffer pH8.0, 37 C)
Format: biochemical
Conditions: 25 μM test compound; Test Method A

Chain of recombinant human PAI-1 (P05121 24-402): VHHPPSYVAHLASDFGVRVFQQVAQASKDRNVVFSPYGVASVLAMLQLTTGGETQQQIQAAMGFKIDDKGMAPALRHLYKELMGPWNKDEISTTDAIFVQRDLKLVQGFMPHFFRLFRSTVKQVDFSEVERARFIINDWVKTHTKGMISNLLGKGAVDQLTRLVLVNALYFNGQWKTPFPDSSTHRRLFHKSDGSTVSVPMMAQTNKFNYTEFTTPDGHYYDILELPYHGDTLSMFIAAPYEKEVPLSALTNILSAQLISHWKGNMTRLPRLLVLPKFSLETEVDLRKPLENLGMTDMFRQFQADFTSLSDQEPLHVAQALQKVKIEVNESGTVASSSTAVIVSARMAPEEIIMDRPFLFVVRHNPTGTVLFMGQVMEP

Compound | Inhibitory Ratio at 25 μM (%)
COc1cc(NC(=O)c2cc(C=C3SC(=O)N(Cc4ccc(Cl)c(Cl)c4)C3=O)ccc2O)cc(OC)c1OC [compound 433, 5-[4-hydroxy-3-(3,4,5-trimethoxyphenylcarbamoyl)benzylidene]-3-(3,4-dichlorobenzyl)thiazolidine-2,4-dione] | >99%
COc1ccc(NC(=O)c2cc(C=C3SC(=O)N(CCc4ccc(Cl)cc4)C3=O)ccc2O)cc1OC [compound 375, 5-[4-Hydroxy-3-(3,4-dimethoxyphenylcarbamoyl)benzylidene]-3-[2-(4-chlorophenyl)ethyl]thiazolidine-2,4-dione] | 63%
COc1ccc(O)c(C=C2C(=O)N(c3ccc(Cl)c(Cl)c3)N=C2C(C)C)c1 [compound 518, 4-(2-hydroxy-5-methoxybenzylidene)-1-(3,4-dichlorophenyl)-3-isopropyl-2-pyrazolin-5-one] | 83%
O=C1C(=Cc2ccc(O)c(O)c2)SC(=S)N1Cc1ccc(C(F)(F)F)cc1 [compound 307, 5-(3,4-Dihydroxybenzylidene)-3-[4-(trifluoromethyl)benzyl]rhodanine] | >99%
COc1ccc(NC(=O)c2cc(C=C3SC(=O)N(Cc4cc(Cl)cc(Cl)c4)C3=O)ccc2O)cc1OC [compound 395, 5-[4-Hydroxy-3-(3,4-dimethoxyphenylcarbamoyl)benzylidene]-3-(3,5-dichlorobenzyl)thiazolidine-2,4-dione] | 88%
O=C(Nc1ccc2c(c1)OCO2)c1cc(C=C2SC(=O)N(Cc3ccc(Cl)c(Cl)c3)C2=O)ccc1O [compound 428] | 86%
O=C(Nc1ccc(O)c(O)c1)c1cc(C=C2SC(=O)N(Cc3cc(F)cc(F)c3)C2=O)ccc1O [compound 386] | 98%
O=C1SC(=Cc2cccc(Oc3ccccc3)c2)C(=O)N1Cc1cc(O)c(O)c(O)c1 [compound 310, 5-(3-Phenoxybenzylidene)-3-(3,4,5-trihydroxybenzyl)thiazolidine-2,4-dione] | >99%
CC(C)C1=NN(c2ccc(C=Cc3ccccn3)cc2)C(=O)C1=Cc1cc(C=Cc2ccccc2)ccc1O [compound 544, 4-(2-Hydroxy-5-styrylbenzylidene)-1-{4-[2-(pyridin-2-yl)vinyl]phenyl}-3-isopropyl-2-pyrazolin-5-one] | 41%
O=C(Cc1ccccc1)Nc1ccc(CN2C(=O)SC(=Cc3cccc(O)c3O)C2=O)cc1 [compound 313, 5-(2,3-Dihydroxybenzylidene)-3-[4-(phenylacetylamino)benzyl]-thiazolidine-2,4-dione] | 73%
O=C(O)c1cccc(NC(=O)c2cc(C=C3SC(=O)N(Cc4ccc(Cl)c(Cl)c4)C3=O)ccc2O)c1 [compound 420] | 85%
COc1cc(NC(=O)c2cc(C=C3SC(=O)N(Cc4ccc(Cl)c(Cl)c4)C3=O)ccc2O)cc(C(F)(F)F)c1 [compound 451, 5-{4-hydroxy-3-[3-methoxy-5-(trifluoromethyl)phenylcarbamoyl]-benzylidene}-3-(3,4-dichlorobenzyl)thiazolidine-2,4-dione] | >99%
COc1cc(Br)cc(C=C2C(=O)N(c3cc(Cl)cc(Cl)c3)N=C2C(C)C)c1O [compound 528] | >99%
O=C(OCc1ccccc1)c1cc(C=C2SC(=O)N(Cc3ccc(Cl)c(Cl)c3)C2=O)cc(O)c1O [compound 463, 5-[3,4-Dihydroxy-5-(benzyloxycarbonyl)benzylidene]-3-(3,4-dichlorobenzyl)thiazolidine-2,4-dione] | >99%
O=C(CCc1ccccc1)Nc1ccc(CN2C(=O)SC(=Cc3cccc(O)c3O)C2=O)cc1 [compound 314, 5-(2,3-Dihydroxybenzylidene)-3-[4-(3-phenylpropionylamino)benzyl]-thiazolidine-2,4-dione] | >99%
CC1=NN(c2cc(Cl)cc(Cl)c2)C(=O)C1=Cc1cc(O)c(O)cc1O [compound 501] | >99%
O=C(Nc1cccc2c1OC(F)(F)O2)c1cc(C=C2SC(=O)N(Cc3ccc(Cl)c(Cl)c3)C2=O)ccc1O [compound 460] | 57%
O=C1SC(=Cc2cc(O)c3c(c2)OCO3)C(=O)N1Cc1ccc(Cl)c(Cl)c1 [compound 324] | 65%
N=C(N)NCCC[C@H](N)C(=O)O.N=C(N)NCCC[C@H](N)C(=O)O.O=C1SC(=Cc2ccc(O)c(O)c2)C(=O)N1Cc1ccc(Cl)cc1Cl [compound 335, di(L-(+)-arginine) salt of 5-(3,4-dihydroxybenzylidene)-3-(2,4-dichlorobenzyl)thiazolidine-2,4-dione] | >99%
O=C(Nc1cc(C(F)(F)F)ccc1C(F)(F)F)c1cc(C=C2SC(=O)N(Cc3ccc(Cl)c(Cl)c3)C2=O)ccc1O [compound 403] | 58%

Continued, values first:

Inhibitory Ratio at 25 μM (%) | Compound
59% | COCC1=NN(c2cc(Cl)cc(Cl)c2)C(=O)C1=Cc1ccc(Oc2ccccc2)cc1 [compound 527]
>99% | COCC1=NN(c2ccc([N+](=O)[O-])cc2)C(=O)C1=Cc1cc(C=Cc2ccccc2)ccc1O [compound 538, 4-(2-Hydroxy-5-styrylbenzylidene)-1-(4-nitrophenyl)-3-methoxymethyl-2-pyrazolin-5-one]
>99% | O=C1C(=Cc2cccc(O)c2)C(c2ccc(O)cc2)=NN1c1cc(Cl)cc(Cl)c1 [compound 509, 4-(3-Hydroxybenzylidene)-1-(3,5-dichlorophenyl)-3-(4-hydroxyphenyl)-2-pyrazolin-5-one]
56% | CCOC(=O)CCC1=NN(c2ccccc2)C(=O)C1=Cc1cc(O)c(O)cc1O [compound 514]
>99% | O=C(Nc1ccccc1)c1ccc(CN2C(=O)SC(=Cc3ccc(O)c(O)c3)C2=O)cc1 [compound 301, 5-(3,4-Dihydroxybenzylidene)-3-[4-(phenylcarbamoyl)benzyl]thiazolidine-2,4-dione]
>99% | CC1=NN(c2ccc([N+](=O)[O-])cc2)C(=O)C1=Cc1cc(C=Cc2ccccc2)ccc1O [compound 533]
>99% | O=C1C(=Cc2cc(Br)ccc2O)C(c2ccc(O)cc2)=NN1c1ccc(Cl)cc1 [compound 520, 4-(2-Hydroxy-5-bromobenzylidene)-1-(4-chlorophenyl)-3-(4-hydroxyphenyl)-2-pyrazolin-5-one]

Same assay, conditions: 50% inhibitory concentration of PAI-1 activity, according to the aforementioned method

IC50 | Compound
580 nM | O=C1C(=Cc2ccc(O)c(O)c2)SC(=S)N1Cc1ccc(C(F)(F)F)cc1 [compound 307, 5-(3,4-Dihydroxybenzylidene)-3-[4-(trifluoromethyl)benzyl]rhodanine]
810 nM | CC1=NN(c2cc(Cl)cc(Cl)c2)C(=O)C1=Cc1cc(O)c(O)cc1O [compound 501]

Same assay, conditions: test compound 25 μM; Test Method A

Compound | Inhibitory Ratio at 25 μM (%)
CC(C)(C)C1=NN(c2cc(Cl)cc(Cl)c2)C(=O)C1=Cc1ccc(O)c(O)c1 [compound 138, 4-(3,4-Dihydroxybenzylidene)-1-(3,5-dichlorophenyl)-3-(tert-butyl)-2-pyrazolin-5-one] | >99%
O=C1C(=Cc2ccc(-c3cc(Cl)cc(Cl)c3)o2)C(c2ccccc2)=NN1c1cccc([N+](=O)[O-])c1 [compound 167, 4-{[5-(3,5-Dichlorophenyl)furan-2-yl]methylene}-1-(3-nitrophenyl)-3-phenyl-2-pyrazolin-5-one] | 50%
O=C1SC(=Cc2ccc(O)c(O)c2)C(=O)N1Cc1cccc(Cl)c1 [compound 31] | >99%
O=C1C(=Cc2ccc(O)c(O)c2)C(C(F)(F)F)=NN1c1cc(Cl)cc(Cl)c1 [compound 147, 4-(3,4-Dihydroxybenzylidene)-1-(3,5-dichlorophenyl)*3-trifluoromethyl-2-pyrazolin-5-one] | >99%
O=C1SC(=Cc2cc([N+](=O)[O-])ccc2O)C(=O)N1Cc1ccc(Cl)c(Cl)c1 [compound 55] | 77%
CC1=NN(c2cccc(Cl)c2)C(=O)C1=Cc1cc(O)c(O)c(O)c1 [compound 123] | 67%
O=C1C(=Cc2cc(O)c(O)c(O)c2)C(c2ccccc2)=NN1c1ccc(Cl)c(Cl)c1 [compound 146] | >99%
O=C1SC(=Cc2ccc(O)c(O)c2)C(=O)N1Cc1ccc(Cl)c(Cl)c1 [compound 9] | >99%
O=C1C(=Cc2cc(O)c(O)c(O)c2)C(c2ccccc2)=NN1c1cc(Cl)cc(Cl)c1 [compound 131] | >99%
Cc1cccc(C=C2SC(=O)N(Cc3cc(C(F)(F)F)cc(C(F)(F)F)c3)C2=O)c1O [compound 6] | 46%
CC(C)(C)C1=NN(c2cc(Cl)cc(Cl)c2)C(=O)C1=Cc1cc(O)c(O)c(O)c1 [compound 139] | >99%
CC1=NN(c2cccc(Cl)c2)C(=O)C1=Cc1cc(O)c(O)cc1O [compound 158] | 72%
COc1ccc(N2C(=O)C(=Cc3ccc(O)c(O)c3)SC2=S)cc1OC [compound 76, 5-(3,4-Dihydroxybenzylidene)-3-(3,4-dimethoxyphenyl)rhodanine] | 56%

Results, then the molecule that gave them:

Inhibitory Ratio at 25 μM (%) | Compound
55% | CC(C)(C)C1=NN(c2ccccc2)C(=O)C1=Cc1ccc(O)c(O)c1 [compound 133]
89% | CC1=NN(c2ccc(Cl)c(Cl)c2)C(=O)C1=Cc1ccc(O)c(O)c1 [compound 152]
66% | CC1=NN(c2cccc(C(=O)O)c2)C(=O)C1=Cc1cc(Br)ccc1OCc1ccccc1 [compound 173]
46% | CC(C)C1=NN(c2cc(Cl)cc(Cl)c2)C(=O)C1=Cc1ccc(Br)cc1 [compound 207]
94% | CC(C)C1=NN(c2cc(Cl)cc(Cl)c2)C(=O)C1=Cc1ccc(Cl)c([N+](=O)[O-])c1 [compound 206]
32% | CC1=NN(c2cccc(C(=O)O)c2)C(=O)C1=Cc1ccccc1 [compound 172]
44% | CC1=NN(c2ccc(Cl)c(C(=O)O)c2)C(=O)C1=Cc1ccc(-c2cccc(F)c2)o1 [compound 192]
32% | COC(=O)c1cccc(N2N=C(C(C)(C)C)C(=Cc3ccc(Cl)c(Cl)c3)C2=O)c1 [compound 197]
29% | CCOC1=NN(c2ccc([N+](=O)[O-])cc2)C(=O)C1=Cc1ccc(C(=O)OC)cc1 [compound 214]
29% | O=C1C(=Cc2ccc(-c3cc([N+](=O)[O-])ccc3O)o2)C(O)=NN1c1cccc(Cl)c1 [compound 165]
